Laboratory results published in patent US20250236616A1, “IMMUNOMODULATING AZALIDES” (Zoetis Services LLC, priority 2021, published 2025).

Key:
Assay type in all cases: cell-based
IL-1β = assay: Whole bovine blood assay, LPS-induced IL-1β (inhibition / overstimulation); conditions: drug concentration giving overstimulation (OS) of LPS-induced IL-1β, top concentration 250 μM
Method: (§1) Whole Blood Assay-Fresh whole bovine blood samples were collected into heparinized vacutainer tubes. Assay plates were prepared with 25 μL of drug diluted in PBS at varying concentration in 96 round bottom wells, then 225 μL of blood was added and plates incubated at 37° C. for 4 hours. Cells were stimulated with LPS (or PBS for controls) by adding 25 μL to the plates at a final concentration of 1 μg/mL and incubated at 37° C. for 18 hours. To collect plasma, plates were centrifuged at 2,000×g for 10 minutes and 100 μL of supernatant was transferred to a 96 well polypropylene plate that was sealed and stored at −80° C. Samples were assayed for cytokines using the Meso Scale Discovery (MSD) platform (described below). This same MSD platform was used to assess cytokines in the plasma collected directly from drug treated animals.
(§2) Cytokine Detection—An MSD U-Plex cytokine assay was developed following the MSD U-Plex protocol guide and included biotinylated capture antibodies against: bovine Interleukin (IL)-1β (Biorad), bovine IL-6 (R&D Systems) and bovine tumor necrosis factor (TNF)-α (R&D Systems). The anti-IL-1β antibody was biotinylated using EZ-Link Sulfo-NHS-Biotin (Thermo Scientific) at a challenge ratio of 1:20 according to manufacturer instructions. Assay calibrators (Kingfisher) were diluted to a concentration of […] in control lithium heparin plasma, followed by 4-fold serial dilutions into plasma. The detection antibodies were sulfo-tagged following the MSD quick guide conjugation protocol using a challenge ratio of 1:20. Antibodies were used at the following concentrations: anti-IL-1β at 1 μg/mL, anti-IL-6 at 1 μg/mL and anti-TNF-α at 0.5 μg/mL. Cytokines were quantified according to manufacturer's instructions using a chemiluminescent readout. In brief, 0.5 mL of all biotinylated antibodies were diluted to 10 μg/mL with Diluent 100 and paired to their respective linkers by adding 750 μL of supplied Linker solution and incubated for 30 minutes followed by addition of Stop solution for another 30 minutes. The linked antibodies were then diluted 10-fold into Stop solution. Plates were coated by adding 50 μL of antibody solutions per well and incubated covered and shaking for 1 hour at room temperature. Plates were washed three times with PBS/Tween20 prior to samples or standards being added at 30 μL per well and incubated as above. Plates were washed three times before detection antibodies were added along with 2% goat and rabbit serum to block and incubated same as above. Plates were washed a further three times before addition of 150 μL 2X Read buffer and read immediately on the SI6000 instrument (MSD). For soluble protein levels, a BCA protein kit (Thermofisher) was used. The cytokine concentrations (pg/mL) were normalized to the total protein levels for each sample. [Bassel et. al., BMC Veterinary Research (2020) 16:168]
(§3) Therefore, a fresh whole bovine blood assay was developed with LPS as a stimulant (TLR-4 agonist) and with IL-1β and TNF-α as the read-out. Compounds of the invention were evaluated against a positive control for their ability to inhibit LPS-induced IL-1β and TNF-α as an overall evaluation of relative potency and modulation of target pathways.
For M9, the top dose of 500 μM was not high enough to determine an overstimulation of IL-1 B which was recorded as not applicable (n/a). The enhanced response indicates increased concentration of IL-1β cytokine at the drug concentration indicated. This is generally observed when compounds are out of range (high concentration) and stimulate a cellular toxicity signal. Further data supporting this hypothesis includes murine studies using a P. multocida infection in mice.
TNFα is a cell signaling protein, cytokine, that plays a key role in both acute and chronic inflammation. […]

TNF-α = assay: Whole bovine blood assay, LPS-induced TNF-α; conditions: fresh whole bovine blood, LPS stimulant; top drug concentration 250 μM
Method: as §1
as §2, with “The anti-IL-1β antibody was biotinylated using EZ-Link Sulfo-NHS-Biotin (Thermo Scientific) at a challenge ratio of 1:20 according to manufacturer instructions.” left out, “The detection antibodies were sulfo-tagged following the MSD quick guide conjugation protocol using a challenge ratio of 1:20.” left out
as §3
TNFα is a cell signaling protein, cytokine, that plays a key role in both acute and chronic inflammation. In the bovine whole blood in vitro screening assay the inhibition of TNFα as induced by stimulation by lipopolysaccharide (LPS) and as measured by half the maximal inhibitory concentration (IC50) is recognized as the primary biomarker of immunomodulation potency upon pretreatment with the compounds of the invention. IL-1 B is a mediator of the inflammation response and is involved in a number of cellular activities including proliferation, differentiation and apoptosis. IL-1ß is also released upon cellular stress or cytotoxicity or upon TLR stimulation. […] In order to estimate a therapeutic index from the in vitro assay a differential between the TNFα IC50 (immunomodulation potency) versus the perceived cellular toxicity concentration (IL-1β release or overstimulation) was utilized.

IL-6 = assay: Whole bovine blood assay, LPS-induced IL-6; conditions: fresh whole bovine blood, LPS stimulant; top drug concentration 250 μM

## CCCNC[C@]1(O)[C@H](C)O[C@@H](O[C@H]2[C@H](C)[C@@H](O[C@@H]3O[C@H](C)C[C@H](N(C)S(=O)(=O)c4nccn4C)[C@H]3Oc3ccc(OC)cc3)[C@](C)(O)C[C@@H](C)CN[C@H](C)[C@@H](O)[C@](C)(O)[C@@H](CC)OC(=O)[C@@H]2C)C[C@@]1(C)OC [Example B-119]
IL-1β
  minimal effective concentration: 6 µM

## CCCNC[C@]1(O)[C@H](C)O[C@@H](O[C@H]2[C@H](C)[C@@H](O[C@@H]3O[C@H](C)C[C@H](N(C)S(=O)(=O)c4ccc(S(N)(=O)=O)cc4)[C@H]3O)[C@](C)(O)C[C@@H](C)CN[C@H](C)[C@@H](O)[C@](C)(O)[C@@H](CC)OC(=O)[C@@H]2C)C[C@@]1(C)OC [Example B-15]
IL-1β
  minimal effective concentration: >250 µM

## CCCNC[C@]1(O)[C@H](C)O[C@@H](O[C@H]2[C@H](C)[C@@H](O[C@@H]3O[C@H](C)C[C@H](N(C)S(N)(=O)=O)[C@H]3O)[C@](C)(O)C[C@@H](C)CN[C@H](C)[C@@H](O)[C@](C)(O)[C@@H](CC)OC(=O)[C@@H]2C)C[C@@]1(C)OC [Example B-140]
IL-1β
  minimal effective concentration: >250 µM

## CCCNC[C@]1(O)[C@H](C)O[C@@H](O[C@H]2[C@H](C)[C@@H](O[C@@H]3O[C@H](C)C[C@H](N(C)S(=O)(=O)c4ccccc4)[C@H]3Oc3ccc(Cl)cn3)[C@](C)(O)C[C@@H](C)CN[C@H](C)[C@@H](O)[C@](C)(O)[C@@H](CC)OC(=O)[C@@H]2C)C[C@@]1(C)OC [Example B-135]
IL-1β
  minimal effective concentration: 6 µM

## CCCNC[C@]1(O)[C@H](C)O[C@@H](O[C@H]2[C@H](C)[C@@H](O[C@@H]3O[C@H](C)C[C@H](N(C)S(=O)(=O)c4ccc(S(C)(=O)=O)cc4)[C@H]3O)[C@](C)(O)C[C@@H](C)CN[C@H](C)[C@@H](O)[C@](C)(O)[C@@H](CC)OC(=O)[C@@H]2C)C[C@@]1(C)OC [Example B-11]
IL-1β
  minimal effective concentration: >250 µM

## CCCNC[C@]1(O)[C@H](C)O[C@@H](O[C@H]2[C@H](C)[C@@H](O[C@@H]3O[C@H](C)C[C@H](N(C)S(=O)(=O)N(C)c4ccc(C#N)cc4)[C@H]3O)[C@](C)(O)C[C@@H](C)CN[C@H](C)[C@@H](O)[C@](C)(O)[C@@H](CC)OC(=O)[C@@H]2C)C[C@@]1(C)OC [Example B-62]
IL-1β
  minimal effective concentration: 3 µM

## CC[C@H]1OC(=O)[C@H](C)[C@@H](O[C@H]2C[C@@](C)(OC)[C@](O)(CNCc3cscn3)[C@H](C)O2)[C@H](C)[C@@H](O[C@@H]2O[C@H](C)C[C@H](N(C)S(=O)(=O)c3ccc(Cl)cc3)[C@H]2O)[C@](C)(O)C[C@@H](C)CN[C@H](C)[C@@H](O)[C@]1(C)O [Example B-37]
TNF-α
  IC50: 8 µM
IL-6
  IC50: 13 µM

## CC[C@H]1OC(=O)[C@H](C)[C@@H](O[C@H]2C[C@@](C)(OC)[C@](O)(CN3CCCCC3)[C@H](C)O2)[C@H](C)[C@@H](O[C@@H]2O[C@H](C)C[C@H](N(C)S(=O)(=O)c3ccc(F)cc3)[C@H]2O)[C@](C)(O)C[C@@H](C)CN[C@H](C)[C@@H](O)[C@]1(C)O [Example C-19]
TNF-α
  IC50: 5 µM
IL-6
  IC50: 7 µM

## CCCNC[C@]1(O)[C@H](C)O[C@@H](O[C@H]2[C@H](C)[C@@H](O[C@@H]3O[C@H](C)C[C@H](N(C)S(=O)(=O)N(C)c4ccc(F)cc4)[C@H]3O)[C@](C)(O)C[C@@H](C)CN[C@H](C)[C@@H](O)[C@](C)(O)[C@@H](CC)OC(=O)[C@@H]2C)C[C@@]1(C)OC [Example B-61]
TNF-α
  IC50: 37 µM
IL-6
  IC50: 71 µM

## CCCN1C[C@H](C)C[C@@](C)(O)[C@H](O[C@@H]2O[C@H](C)C[C@H](N(C)S(N)(=O)=O)[C@H]2O)[C@@H](C)[C@H](O[C@H]2C[C@@](C)(OC)[C@](O)(CNc3ccc(OC)cc3)[C@H](C)O2)[C@@H](C)C(=O)O[C@H](CC)[C@@](C)(O)[C@H](O)[C@H]1C [Example B-157]
TNF-α
  IC50: 22 µM
IL-6
  IC50: 31 µM

## CCCNC[C@]1(O)[C@H](C)O[C@@H](O[C@H]2[C@H](C)[C@@H](O[C@@H]3O[C@H](C)C[C@H](N(C)S(=O)(=O)c4ccc(Cl)cc4)[C@H]3O)[C@](C)(O)C[C@@H](C)CN(CCC)[C@H](C)[C@@H](O)[C@](C)(O)[C@@H](CC)OC(=O)[C@@H]2C)C[C@@]1(C)OC [Example B-151]
TNF-α
  IC50: 8 µM
IL-6
  IC50: 10 µM

## CC[C@H]1OC(=O)[C@H](C)[C@@H](O[C@H]2C[C@@](C)(OC)[C@](O)(CNCc3ccc(C(F)(F)F)cc3)[C@H](C)O2)[C@H](C)[C@@H](O[C@@H]2O[C@H](C)C[C@H](N(C)S(=O)(=O)c3ccc(Cl)cc3)[C@H]2O)[C@](C)(O)C[C@@H](C)CN[C@H](C)[C@@H](O)[C@]1(C)O [Example B-25]
TNF-α
  IC50: 5 µM
IL-6
  IC50: 17 µM

## CC[C@H]1OC(=O)[C@H](C)[C@@H](O[C@H]2C[C@@](C)(OC)[C@](O)(CNCc3ccccc3)[C@H](C)O2)[C@H](C)[C@@H](O[C@@H]2O[C@H](C)C[C@H](N(C)S(=O)(=O)c3nccn3C)[C@H]2Oc2ccc(F)cc2)[C@](C)(O)C[C@@H](C)CN[C@H](C)[C@@H](O)[C@]1(C)O [Example B-141]
TNF-α
  IC50: 7 µM
IL-6
  IC50: 4 µM

## CC[C@H]1OC(=O)[C@H](C)[C@@H](O[C@H]2C[C@@](C)(OC)[C@](O)(CN3CCCCC3)[C@H](C)O2)[C@H](C)[C@@H](O[C@@H]2O[C@H](C)C[C@H](N(C)S(=O)(=O)c3nccn3C)[C@H]2Oc2ccc(F)cc2)[C@](C)(O)C[C@@H](C)CN[C@H](C)[C@@H](O)[C@]1(C)O [Example C-56]
TNF-α
  IC50: 5 µM
IL-6
  IC50: 4 µM

## CC[C@H]1OC(=O)[C@H](C)[C@@H](O)[C@H](C)[C@@H](O[C@H]2O[C@@H](C)C[C@@H](N(C)S(=O)(=O)Nc3ccccc3)[C@@H]2Oc2ccc(F)cc2)[C@](C)(O)C[C@@H](C)CN[C@H](C)[C@@H](O)[C@]1(C)O [Example A-37]
TNF-α
  IC50: 19 µM
IL-6
  IC50: 46 µM

## CC[C@H]1OC(=O)[C@H](C)[C@@H](O[C@H]2C[C@@](C)(OC)[C@](O)(CN3CCCCC3)[C@H](C)O2)[C@H](C)[C@@H](O[C@@H]2O[C@H](C)C[C@H](N(C)S(=O)(=O)Nc3ccc(C)cc3)[C@H]2O)[C@](C)(O)C[C@@H](C)CN[C@H](C)[C@@H](O)[C@]1(C)O [Example C-32]
TNF-α
  IC50: 5 µM
IL-6
  IC50: 8 µM
